Reference: paper PMC8362065, “Easily Available, Amphiphilic Diiron Cyclopentadienyl Complexes Exhibit in Vitro Anticancer Activity in 2D and 3D Human Cancer Cells through Redox Modulation Triggered by CO Release” (Chemistry (Weinheim an Der Bergstrasse, Germany), 2021)

Key:
[1] = Octanol/water partition coefficient, shake-flask method and UV/Vis; settings: octanol/water, 21 °C
Method: Octanol/water partition coefficients (log Pow ). Partition coefficients (P ow; IUPAC: K D partition constant[53]), defined as P ow=corg/caq, where corg and caq are molar concentrations of the selected compound in the organic and aqueous phase, respectively, were determined by the shake‐flask method and UV/Vis measurements.[[16a], [54]] Deionized water and octan‐1‐ol were vigorously stirred for 24 h, to enable saturation of both phases, then separated by centrifugation. A stock solution of the selected Fe compound (ca. 2 mg) was prepared by first adding acetone (50 μL, to help solubilization), followed by water‐saturated octanol (2.5 mL). The solution was diluted with water‐saturated octanol (ca. 1 : 3 v/v ratio, cFe2 ≈10^−4 M, so that 1.5≤A≤2.0 at λ max) and its UV/Vis spectrum was recorded ( A0/org ). An aliquot of the solution (V org=1.2 mL) was transferred into a test tube and octanol‐saturated water (V org=V aq=1.2 mL) was added. The mixture was vigorously stirred for 30 min at 21 °C then centrifuged (RCF 805, 5 min; Hettich EBA 8G). The UV/Vis spectrum of the organic phase was recorded ( Af/org ) and the partition coefficient was calculated as P ow= Af/org /( A0/org g− Af/org ) where A0/org and Af/org are the absorbance in the organic phase before and after partition with the aqueous phase, respectively.[53] For [2B]BF4, [2C]Cl and [3F]CF3SO3 an inverse procedure was followed, starting from a solution of the compound in octanol‐saturated water. The partition coefficient was calculated as P ow=( A0/aq − Af/aq )/ Af/aq where A0/aq and Af/aq are the absorbance in the aqueous phase before and after partition with the organic phase, respectively.

[2] = Stability in D2O, D2O/CD3OD and DMSO-d6/D2O at 37 °C by 1H NMR; assay type: physicochemical
Method: A detailed study on the behaviour of a selection of the diiron complexes in aqueous media was undertaken. Experimental procedures are provided in the Experimental Section and in the Supporting Information, with data collected in Tables 3, S3 and S4. […] The octanol/water partition coefficients (log P ow) were measured by a UV/Vis method and fall in between 0 and −1, reflecting an amphiphilic or slightly hydrophilic character. […] Conversely, those complexes with aromatic groups (i. e., 1H‐indol‐6‐yl, 2‐naphthyl and bis‐benzyl in [2A]^+, [3G]^+, [4G]^+ and [5H]^+) are less soluble in water and display increased affinity for n‐octanol (log P ow≈0). The diiron compounds are inert in aqueous solution at room temperature, and undergo a slow degradation at 37 °C. Under such conditions, a variable amount (50 to 86 %; Table S3) of the starting material was detected by ^1H NMR in D2O or D2O/CD3OD mixtures after 72 h.[33] During this time, the precipitation of a brown solid was observed, which in one case (from a [2C]CF3SO3 solution) was separated and identified as γ‐Fe2O3 by Raman analysis. In addition, headspace GC analyses performed on 5 % MeOH aqueous solutions of the compounds maintained at 37 °C allowed the identification and quantitation of the carbon monoxide released over a 48 h period (Table S4). These facts indicate that the thermal degradation process in aqueous solution leads to the progressive disassembly of the organometallic scaffold.[16] The presumed, controlled release of the iron centres (converted to iron oxide, see above) and carbon monoxide are two aspects that deserve attention with reference to the biological activity: note that the decay of ferrocene drug candidates into Fe^II ions was previously associated to their cytotoxicity,[34] while the activity of various iron carbonyl complexes was correlated to CO dissociation in the physiological media.[35]
Stability in water (D2O) and cell culture medium. The procedures are described in the Supporting Information, and data are collected in Table S3.
Table S3. Stability of diiron complexes in D2O, D2O/CD3OD, DMSO-d6/D2O and cell culture medium (DMEM-
d/CD3OD) solution at 37 °C calculated by 1H NMR (Me2SO2 internal standard).
% starting material (72 h) % starting material
Compound D O D O/CD OD DMSO-d /D O DMEM-d
[a] X = I for the stability in D 2O, X = CF3SO3 for the stability in cell culture medium. [b] Stability in D 2O and […]

Substance	Log P ow [1]	% starting material (72 h) ([2]; D2O)	other results
[Fe2Cp2(CO)2(μ‐CO){μ‐CNBn2}]X [[5H]CF3SO3]	0.2±0.02	ca. 50%	Log P ow ([1]; listed as [5H]^+): ≈ 0; % starting material (72 h) ([2]; D2O/CD3OD 5:4 v/v): 65%; % starting material (72 h) ([2]; DMSO-d6/D2O 1:1 v/v): 89%
[Fe2Cp2(CO)2(μ‐CO){μ‐CNEt(2‐naphthyl)}]BF4 [[4G]BF4]	0.1±0.1	–	Log P ow ([1]; listed as [4G]^+): ≈ 0; % starting material (72 h) ([2]; D2O/CD3OD 5:4 v/v): 51%; % starting material (72 h) ([2]; DMSO-d6/D2O 5:3 v/v): 42%
[Fe2Cp2(CO)2(μ‐CO){μ‐CNMe(1H‐indol‐6‐yl)}]CF3SO3 [[2A]CF3SO3]	0.0±0.1	–	Log P ow ([1]; listed as [2A]^+): ≈ 0; % starting material (72 h) ([2]; D2O/CD3OD 2:1 v/v): 55%; % starting material (72 h) ([2]; DMSO-d6/D2O 1:1 v/v): 89%
[Fe2Cp2(CO)2(μ‐CO){μ‐CNMe(4‐C6H4OMe)}]CF3SO3 [[2D]CF3SO3]	−0.25±0.04	86%	–
[Fe2Cp2(CO)2(μ‐CO){μ‐CNMe(C6H11)}]X [[2C]CF3SO3]	−0.46±0.02	75%	–
[Fe2Cp2(CO)2(μ‐CO){μ‐CNMe(CH2CHCH2)}]X [[3F]CF3SO3]	−1.01±0.02	–	–
[Fe2Cp2(CO)2(μ‐CO){μ‐CNMe(CH2PO3Et2)}]X [[2B]BF4]	–	85%	% starting material (72 h) ([2]; D2O/CD3OD 2:1 v/v): 81%
